Values joined by “and” are separate entries in the source; they are usually repeats but may differ in a detail not shown here. Identical values can stand only once. Each block holds one compound with its values, some of them ahead of it.
Test system: 519858-162-T-J1-PDC spheroid growth inhibition
Experiment: Anticancer human tumor 519858-162-T-J1-PDC patient-derived colon adenocarcinoma cell line growth inhibition [TAK]
Conditions: spheroids with HUVEC and MSC; for viability, T/C: stronger effect = lower value
Excerpt: Combinatorial screen of targeted agents with TAK-243 and ipatasertib in multi-cell type tumor spheroids
A high-throughput screen of multi-cell type tumor spheroids was designed to identify active combinations of targeted small molecules and TAK-243 or ipatasertib. Complex spheroids include a stromal component modeled by human endothelial cells (HUVEC) and fibroblasts modeled by human mesenchymal stem cells (MSCs). The concentration ranges selected for each drug and investigational agent were based upon clinically achievable concentrations if the clinical Cmax of the agent was known.
Compounds. The drugs and investigational agents: TAK-243 (785004), ipatasertib (767898), everolimus (733504), selumetinib (741078), bortezomib (756655), trametinib (758246), ixazomib (758254), vemurafenib (761431), dabrafenib (764134), sapanisertib (764658), alpelisib (765974), and copanlisib (816437), were obtained from the National Cancer Institute (NCI) Developmental Therapeutics Program Chemical Repository. The FDA-approved anticancer drug set is available from the NCI Developmental Therapeutics Program. […] The stock solutions were prepared in dimethyl sulfoxide (DMSO, Sigma-Aldrich, St. Louis, MO, cat. D2650) at 800-fold the tested concentration and stored at -70 degrees C prior to their use. All drugs and investigational agents were tested over a range starting from a high concentration at or near the clinical Cmax and decreasing in half-log increments. If the clinical Cmax for an agent had not been determined, the highest concentration tested was 10 microM.
NCI60 Cell Culture. NCI60 cell lines were obtained from the NCI Developmental Therapeutics Program Tumor Repository. For each lot of cells, the Repository performed Applied Biosystems AmpFLSTR Identifiler testing with PCR amplification to confirm consistency with the published Identifier STR profile for each cell line. Cells were kept in continuous culture for no more than 20 passages. The optimal seeding densities for each of the cell lines at each time point assessed were determined prior to performing the concentration response studies. Briefly, the NCI60 human tumor lines were grown as monolayers in RPMI 1640 medium supplemented with 10% FBS and 2 mmol/L L-glutamine.
An additional 2 lines were from the NCI60 cell line panel including melanomas, MALME-3M and SK-MEL-2. Pooled donor human umbilical vein endothelial cells (HUVEC, Lonza, cat. CC-2519) and human mesenchymal stem cells (hMSC, Lonza, cat. PT-2501) were purchased from Lonza (Walkersville, MD).
PDMR cell lines were grown in complete medium (DC medium): Dulbecco's modified Eagle's medium (DMEM)/F12 supplemented with 5% fetal bovine serum (FBS), 2 mM L-glutamine, 100 U/mL penicillin and 100 µg/ml streptomycin, 0.4 µg/ml hydrocortisone, 10 ng/ml epidermal growth factor (EGF) recombinant human protein, 24 µg/mL adenine, and 0.1 mg/mL primocin. During culture from frozen stock vials, PDMR cells were cultured in the same medium containing 10 µM Y-27632 (see Table 3). The PDCs were cultured in complete DMEM/F12 media without 10 microM Y-27632 dihydrochloride for at least two passages prior to the screen. The pooled donor HUVEC and hMSC were cultured in endothelial cell growth medium 2 (PromoCell, Heidelberg, Germany, cat. C-22011) and mesenchymal stem cell growth medium 2 (PromoCell, cat. C-28009), respectively. For all experiments, HUVEC and hMSC were used at passages </=5.
For the pre-screen, cell seeding densities were determined from a titration spanning the range from 5,000 to 313 cells per well. The mct-spheroids including 60% malignant cells, 25% HUVEC and 15% MSC dispensed as a mixture into U-bottom Ultra-Low Attachment 384-well plates (Corning, NY)
High-throughput Drug Combination Screening.
Prior to their inoculation into 384-well plates, malignant cells, HUVEC, and hMSC were removed from T flasks using TrypLE express (Thermo Fisher Scientific, cat. 12605036) and harvested by centrifugation for 5 min at 233 x g. […]
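Also: spheroids exposed to drugs for 7 days.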

SMILES: CC(=O)Nc1cccc(-n2c(=O)n(C3CC3)c(=O)c3c(Nc4ccc(I)cc4F)n(C)c(=O)c(C)c32)c1
viability, T/C (compound 94.9 pM): 89.9% and 91.8%
viability, T/C (compound 0.0003 µM): 93.7% and 106%
viability, T/C (compound 0.000949 µM): 72.7% and 67.4%
viability, T/C (compound 0.003 µM): 71.1% and 79.3%
viability, T/C (compound 0.00949 µM): 34.1% and 44.1%
viability, T/C (compound 0.03 µM): 21.4% and 26.3%
IC50 (curve of compound): 5.61 nM and 8.51 nM

SMILES: CC(C)(C)c1nc(-c2cccc(NS(=O)(=O)c3c(F)cccc3F)c2F)c(-c2ccnc(N)n2)s1
viability, T/C (compound 0.0316 µM): 116% and 110%
viability, T/C (compound 0.1 µM): 134% and 144%
viability, T/C (compound 0.316 µM): 131% and 137%
viability, T/C (compound 1 µM): 132% and 150%
viability, T/C (compound 3.16 µM): 99% and 94.1%
viability, T/C (compound 10 µM): 53.2% and 71.4%
IC50 (curve of compound): > 10000 nM

SMILES: CC(C)CC(NC(=O)C(Cc1ccccc1)NC(=O)c1cnccn1)B(O)O (stereo not given)
viability, T/C (compound 31.6 pM): 90.9% and 107%
viability, T/C (compound 0.0001 µM): 97.5% and 90.8%
viability, T/C (compound 0.000316 µM): 91% and 116%
viability, T/C (compound 0.001 µM): 88.1% and 106%
viability, T/C (compound 0.00316 µM): 89.5% and 109%
viability, T/C (compound 0.01 µM): 73.2% and 71.1%
IC50 (curve of compound): > 10 nM

SMILES: CC(C)n1nc(-c2ccc3oc(N)nc3c2)c2c(N)ncnc21
viability, T/C (compound 0.001 µM): 104% and 100%
viability, T/C (compound 0.00316 µM): 94.8% and 95.9%
viability, T/C (compound 0.01 µM): 112% and 97.5%
viability, T/C (compound 0.0316 µM): 78.9% and 93.1%
viability, T/C (compound 0.1 µM): 74.1% and 61.6%
IC50 (curve of compound): > 100 nM

SMILES: CCCS(=O)(=O)Nc1ccc(F)c(C(=O)c2c[nH]c3ncc(-c4ccc(Cl)cc4)cc23)c1F
viability, T/C (compound 0.316 µM): 99.3% and 108%
viability, T/C (compound 1 µM): 91.4% and 91.7%
viability, T/C (compound 3.16 µM): 105% and 126%
viability, T/C (compound 10 µM): 91.9% and 93%
viability, T/C (compound 31.6 µM): 114% and 129%
viability, T/C (compound 100 µM): 132% and 140%
IC50 (curve of compound): > 100000 nM

SMILES: Cc1nc(NC(=O)N2CCCC2C(N)=O)sc1-c1ccnc(C(C)(C)C(F)(F)F)c1 (stereo not given)
viability, T/C (compound 0.0316 µM): 104% and 89.1%
viability, T/C (compound 0.1 µM): 79.9% and 74%
viability, T/C (compound 0.316 µM): 91% and 80.8%
viability, T/C (compound 1 µM): 81.2% and 80.4%
viability, T/C (compound 3.16 µM): 79.6% and 74%
viability, T/C (compound 10 µM): 61.9% and 50%
IC50 (curve of compound): > 10000 nM and 10000 nM

SMILES: Cn1cnc2c(F)c(Nc3ccc(Br)cc3Cl)c(C(=O)NOCCO)cc21
viability, T/C (compound 0.00949 µM): 89.7% and 85.4%
viability, T/C (compound 0.03 µM): 76.2% and 71.8%
viability, T/C (compound 0.0949 µM): 45.6% and 51.8%
viability, T/C (compound 0.3 µM): 32.3% and 33.5%
viability, T/C (compound 0.949 µM): 20.3% and 21.6%
viability, T/C (compound 3 µM): 17.2% and 18.4%
IC50 (curve of compound): 89.6 nM and 106 nM

Second part, led by results:

IC50 (curve of compound): > 100 nM
SMILES: CC(C)CC(NC(=O)CNC(=O)c1cc(Cl)ccc1Cl)B1OC(=O)CC(CC(=O)O)(C(=O)O)O1 (stereo not given)
viability, T/C (compound 0.000316 µM): 86.2% and 83.8%
viability, T/C (compound 0.00316 µM): 106% and 95.6%
viability, T/C (compound 0.01 µM): 92.6% and 72.9%
viability, T/C (compound 0.0316 µM): 74.9% and 77%
viability, T/C (compound 0.1 µM): 74.5% and 84.2%

IC50 (compound alone, run of 02/28/2020): > 30000 nM
SMILES: CC(C)NCC(C(=O)N1CCN(c2ncnc3c2C(C)CC3O)CC1)c1ccc(Cl)cc1 (stereo not given)
viability, T/C (compound 3 µM): 87% [middle of 10 runs]
viability, T/C (compound 30 µM): 86.8% [middle of 10 runs]

IC50 (curve of compound): > 100 nM
SMILES: COC1CC2CCC(C)C(O)(O2)C(=O)C(=O)N2CCCCC2C(=O)OC(C(C)CC2CCC(OCCO)C(OC)C2)CC(=O)C(C)C=C(C)C(O)C(OC)C(=O)C(C)CC(C)C=CC=CC=C1C (stereo not given)
viability, T/C (compound 0.000316 µM): 98.9% and 86.7%
viability, T/C (compound 0.00316 µM): 88.3% and 111%
viability, T/C (compound 0.01 µM): 76.2% and 91.2%
viability, T/C (compound 0.0316 µM): 89.6% and 75.7%
viability, T/C (compound 0.1 µM): 71.5% and 82.5%

IC50 (curve of compound): 111 nM and 315 nM
SMILES: COc1c(OCCCN2CCOCC2)ccc2c3n(c(=NC(=O)c4cnc(N)nc4)nc12)CCN3
viability, T/C (compound 0.00316 µM): 95.7% and 91.3%
viability, T/C (compound 0.01 µM): 80.9% and 100%
viability, T/C (compound 0.0316 µM): 81.7% and 72.2%
viability, T/C (compound 0.1 µM): 48.8% and 62.1%
viability, T/C (compound 0.316 µM): 43.9% and 52.3%
viability, T/C (compound 1 µM): 33.8% and 44.4%

— PubChem BioAssay AID2060354 (Molecular Pharmacology Branch, DTP, NCI, 2025)
